Results: paper PMC6957248 (Bioorganic & medicinal chemistry letters, 2016)

Columns and labels:
[1] = target: T1, human TRPV1 heterologously expressed in Chinese hamster ovary (CHO) cells (Homo sapiens, UniProt Q8NER1); assay: binding competition assay with [3H]-resiniferatoxin; conditions: for fold weaker binding affinity compared to 1: ratio of Ki versus compound 1
[2] = target: T1, human TRPV1 heterologously expressed in Chinese hamster ovary (CHO) cells; assay type: cell-based; conditions: for fold weaker antagonistic potency compared to 1: ratio of Ki(ant) versus compound 1

T1 sequence (Q8NER1 whole entry): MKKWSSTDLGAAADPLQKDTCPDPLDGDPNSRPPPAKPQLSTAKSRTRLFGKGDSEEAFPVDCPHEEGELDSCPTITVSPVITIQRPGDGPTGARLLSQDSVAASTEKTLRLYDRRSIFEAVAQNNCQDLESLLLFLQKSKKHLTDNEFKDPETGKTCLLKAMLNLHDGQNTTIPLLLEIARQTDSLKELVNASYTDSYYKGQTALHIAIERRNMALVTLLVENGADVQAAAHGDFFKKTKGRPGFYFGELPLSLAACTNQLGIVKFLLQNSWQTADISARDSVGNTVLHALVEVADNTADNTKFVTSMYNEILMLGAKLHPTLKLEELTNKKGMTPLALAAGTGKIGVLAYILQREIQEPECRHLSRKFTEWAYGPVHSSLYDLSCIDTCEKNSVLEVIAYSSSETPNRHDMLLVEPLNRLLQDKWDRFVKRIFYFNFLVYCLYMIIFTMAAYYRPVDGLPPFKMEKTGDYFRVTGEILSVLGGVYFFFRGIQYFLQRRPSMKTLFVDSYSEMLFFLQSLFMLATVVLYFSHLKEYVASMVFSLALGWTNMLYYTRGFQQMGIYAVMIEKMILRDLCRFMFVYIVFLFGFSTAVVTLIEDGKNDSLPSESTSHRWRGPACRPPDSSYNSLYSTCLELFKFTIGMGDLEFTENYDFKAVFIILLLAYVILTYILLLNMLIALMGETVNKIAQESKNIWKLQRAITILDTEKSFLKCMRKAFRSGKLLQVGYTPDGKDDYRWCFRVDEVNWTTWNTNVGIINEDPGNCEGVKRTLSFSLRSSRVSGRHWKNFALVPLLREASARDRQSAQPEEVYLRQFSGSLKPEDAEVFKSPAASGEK

Row | Structure (SMILES) | fold weaker binding affinity compared to 1 [1] [fold] | fold weaker antagonistic potency compared to 1 [2] [fold] | other results
1 | CC1CCN(c2nc(C(F)(F)F)ccc2CNC(=O)Nc2ccc(CNS(C)(=O)=O)c(F)c2)CC1 [Compound 27] | – | – | fold increase in binding affinity compared to 21 ([1]; ratio of Ki versus compound 21): approximately 12 fold; fold increase in antagonistic potency compared to 21 ([2]; ratio of Ki(ant) versus compound 21): approximately 12 fold
2 | CC1CCN(c2nc(C(F)(F)F)ccc2CCNC(=O)C(C)c2ccc(NS(C)(=O)=O)c(F)c2)CC1 (stereo not shown) [Compound 11] | 7 | 43 | –
3 | CC1CCN(c2nc(C(F)(F)F)ccc2CNC(=O)Nc2ccc(NS(C)(=O)=O)c(F)c2)CC1 [Compound 21] | 11 | 67 | –
4 | Cc1cccc(N(C(=O)NCc2ccc(C(F)(F)F)nc2N2CCC(C)CC2)c2ccc(NS(C)(=O)=O)c(F)c2)c1 [Compound 42] | – | – | extent of antagonism, 15 min pre-incubation ([2]; cells incubated with compound 15 min before challenge with capsaicin): full antagonism
5 | CC1CCN(c2nc(C(F)(F)F)ccc2CCNC(=O)Nc2ccc(NS(C)(=O)=O)c(F)c2)CC1 [Compound 22] | – | – | character of antagonism ([2]; capsaicin stimulated 45Ca2+ uptake): partial antagonist
6 | CC1CCN(c2nc(C(F)(F)F)ccc2CNC(=O)C(C)c2ccc(CNS(C)(=O)=O)c(F)c2)CC1 (stereo not shown) [Compound 16] | 29 | 12 | –
